PubChem BioAssay AID1919014 (Molecular Pharmacology Branch, DTP, NCI, 2023)

System: NCI-H1341 complex spheroids, percent test/control
Assay: Anticancer human tumor NCI-H1341 cell line growth inhibition [AhR];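 also: spheroids exposed to agents for seven days before readout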
Details: for IC50: curve of first compound; for viability, T/C: stronger effect = lower value; active = viability on the fitted dose curve at most 10% of control; inactive = the rest
How it was run: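 Complex tumor spheroids co-cultured with HUVEC and human MSC stroma; AhR antagonists tested in combination with standard-of-care and investigational agents. Top concentration at or near clinical Cmax (else 10 microM), half-log dilutions; growth expressed as percent test/control.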

[1] = second compound 0.1 µM, first compound 0.0316 µM
[2] = second compound 0.1 µM, first compound 0.1 µM
[3] = second compound 0.1 µM, first compound 0.316 µM
[4] = second compound 0.1 µM, first compound 1 µM
[5] = second compound 0.1 µM, first compound 3.16 µM
[6] = second compound 0.1 µM, first compound 10 µM
[7] = second compound 0.316 µM, first compound 0.0316 µM
[8] = second compound 0.316 µM, first compound 0.1 µM
[9] = second compound 0.316 µM, first compound 0.316 µM
[10] = second compound 0.316 µM, first compound 1 µM
[11] = second compound 0.316 µM, first compound 3.16 µM
[12] = second compound 0.316 µM, first compound 10 µM
[13] = second compound 1 µM, first compound 0.0316 µM
[14] = second compound 1 µM, first compound 0.1 µM
[15] = second compound 1 µM, first compound 0.316 µM
[16] = second compound 1 µM, first compound 1 µM
[17] = second compound 1 µM, first compound 3.16 µM
[18] = second compound 1 µM, first compound 10 µM
[19] = second compound 3.16 µM, first compound 0.0316 µM
[20] = second compound 3.16 µM, first compound 0.1 µM
[21] = second compound 3.16 µM, first compound 0.316 µM
[22] = second compound 3.16 µM, first compound 1 µM
[23] = second compound 3.16 µM, first compound 3.16 µM
[24] = second compound 3.16 µM, first compound 10 µM
[25] = second compound 10 µM, first compound 0.0316 µM
[26] = second compound 10 µM, first compound 0.1 µM
[27] = second compound 10 µM, first compound 0.316 µM
[28] = second compound 10 µM, first compound 1 µM
[29] = second compound 10 µM, first compound 3.16 µM
[30] = second compound 10 µM, first compound 10 µM

CC1(C)CCC(CN2CCN(c3ccc(C(=O)NS(=O)(=O)c4ccc(NCC5CCOCC5)c([N+](=O)[O-])c4)c(Oc4cnc5[nH]ccc5c4)c3)CC2)=C(c2ccc(Cl)cc2)C1 + Cc1ccccc1N=Nc1ccc(NC(=O)c2ccnn2C)c(C)c1
inactive: viability, T/C [1] 96.5% | viability, T/C [2] 86% | viability, T/C [3] 96% | viability, T/C [4] 60.5% | viability, T/C [5] 41.3% | viability, T/C [6] 12.6% | viability, T/C [7] 100% | viability, T/C [8] 82.3% | viability, T/C [9] 94.2% | viability, T/C [10] 78.3% | viability, T/C [11] 38.1% | viability, T/C [12] 14.3% | viability, T/C [13] 80.3% | viability, T/C [14] 70.2% | viability, T/C [15] 84.2% | viability, T/C [16] 72.3% | viability, T/C [17] 34.6% | viability, T/C [18] 14.1% | viability, T/C [19] 80% | viability, T/C [20] 54.4% | viability, T/C [21] 61% | viability, T/C [22] 46.7% | viability, T/C [23] 30.1% | viability, T/C [24] 16.5% | viability, T/C [25] 44.2% | viability, T/C [26] 39.9% | viability, T/C [27] 44.5% | viability, T/C [28] 35.4% | viability, T/C [29] 22% | viability, T/C [30] 12.8%
2260 nM: IC50 (second compound 0.316 µM)
1970 nM: IC50 (second compound 0.1 µM)
< 31.6 nM: IC50 (second compound 10 µM)
1990 nM: IC50 (second compound 1 µM)
539 nM: IC50 (second compound 3.16 µM)

CCN(c1cc(-c2ccc(CN3CCOCC3)cc2)cc(C(=O)NCc2c(C)cc(C)[nH]c2=O)c1C)C1CCOCC1 + Cc1ccccc1N=Nc1ccc(NC(=O)c2ccnn2C)c(C)c1
> 3000 nM: IC50 (second compound 0.1 µM) | IC50 (second compound 0.316 µM) | IC50 (second compound 1 µM) | IC50 (second compound 3.16 µM) | IC50 (second compound 10 µM)
inactive: viability, T/C (second compound 0.1 µM, first compound 0.00949 µM) 95.8% | viability, T/C (second compound 0.1 µM, first compound 0.03 µM) 85.1% | viability, T/C (second compound 0.1 µM, first compound 0.0949 µM) 75.5% | viability, T/C (second compound 0.1 µM, first compound 0.3 µM) 104% | viability, T/C (second compound 0.1 µM, first compound 0.949 µM) 90.9% | viability, T/C (second compound 0.1 µM, first compound 3 µM) 107% | viability, T/C (second compound 0.316 µM, first compound 0.00949 µM) 90.2% | viability, T/C (second compound 0.316 µM, first compound 0.03 µM) 103% | viability, T/C (second compound 0.316 µM, first compound 0.0949 µM) 89.6% | viability, T/C (second compound 0.316 µM, first compound 0.3 µM) 87.1% | viability, T/C (second compound 0.316 µM, first compound 0.949 µM) 104% | viability, T/C (second compound 0.316 µM, first compound 3 µM) 73.1% | viability, T/C (second compound 1 µM, first compound 0.00949 µM) 91.6% | viability, T/C (second compound 1 µM, first compound 0.03 µM) 102% | viability, T/C (second compound 1 µM, first compound 0.0949 µM) 94.7% | viability, T/C (second compound 1 µM, first compound 0.3 µM) 90.6% | viability, T/C (second compound 1 µM, first compound 0.949 µM) 79.8% | viability, T/C (second compound 1 µM, first compound 3 µM) 100% | viability, T/C (second compound 3.16 µM, first compound 0.00949 µM) 75.2% | viability, T/C (second compound 3.16 µM, first compound 0.03 µM) 75.1% | viability, T/C (second compound 3.16 µM, first compound 0.0949 µM) 70.6% | viability, T/C (second compound 3.16 µM, first compound 0.3 µM) 71% | viability, T/C (second compound 3.16 µM, first compound 0.949 µM) 73.3% | viability, T/C (second compound 3.16 µM, first compound 3 µM) 60.6% | viability, T/C (second compound 10 µM, first compound 0.00949 µM) 54.9% | viability, T/C (second compound 10 µM, first compound 0.03 µM) 45.6% | viability, T/C (second compound 10 µM, first compound 0.0949 µM) 54.6% | viability, T/C (second compound 10 µM, first compound 0.3 µM) 52.2% | viability, T/C (second compound 10 µM, first compound 0.949 µM) 49.8% | viability, T/C (second compound 10 µM, first compound 3 µM) 66.5%

COc1cc(Nc2ncc3c(n2)-c2ccc(Cl)cc2C(c2c(F)cccc2OC)=NC3)ccc1C(=O)O + Cc1ccccc1N=Nc1ccc(NC(=O)c2ccnn2C)c(C)c1
< 31.6 nM: IC50 (second compound 0.1 µM) | IC50 (second compound 0.316 µM) | IC50 (second compound 3.16 µM) | IC50 (second compound 10 µM)
249 nM: IC50 (second compound 1 µM)
inactive: viability, T/C [1] 48.9% | viability, T/C [2] 45.1% | viability, T/C [3] 42% | viability, T/C [4] 31.9% | viability, T/C [5] 29.9% | viability, T/C [6] 25.6% | viability, T/C [7] 50.6% | viability, T/C [8] 46.3% | viability, T/C [9] 48.5% | viability, T/C [10] 39.2% | viability, T/C [11] 30% | viability, T/C [12] 25.2% | viability, T/C [13] 56.2% | viability, T/C [14] 55.3% | viability, T/C [15] 48.3% | viability, T/C [16] 40% | viability, T/C [17] 31.4% | viability, T/C [18] 26% | viability, T/C [19] 47.7% | viability, T/C [20] 48.1% | viability, T/C [21] 39.5% | viability, T/C [22] 40.9% | viability, T/C [23] 25.3% | viability, T/C [24] 26.8% | viability, T/C [25] 44% | viability, T/C [26] 43.9% | viability, T/C [27] 37.3% | viability, T/C [28] 38.2% | viability, T/C [29] 27.3% | viability, T/C [30] 28.6%

Cn1ncnc1C1c2n[nH]c(=O)c3cc(F)cc(c23)NC1c1ccc(F)cc1 (stereo not given) + Cc1ccccc1N=Nc1ccc(NC(=O)c2ccnn2C)c(C)c1
70.1 nM: IC50 (second compound 10 µM)
> 100 nM: IC50 (second compound 0.1 µM) | IC50 (second compound 0.316 µM) | IC50 (second compound 1 µM) | IC50 (second compound 3.16 µM)
inactive: viability, T/C (second compound 0.1 µM, first compound 0.000316 µM) 112% | viability, T/C (second compound 0.1 µM, first compound 0.001 µM) 105% | viability, T/C (second compound 0.1 µM, first compound 0.00316 µM) 80.9% | viability, T/C (second compound 0.1 µM, first compound 0.01 µM) 86.1% | viability, T/C [1] 95.2% | viability, T/C [2] 90.1% | viability, T/C (second compound 0.316 µM, first compound 0.000316 µM) 89.9% | viability, T/C (second compound 0.316 µM, first compound 0.001 µM) 103% | viability, T/C (second compound 0.316 µM, first compound 0.00316 µM) 93.6% | viability, T/C (second compound 0.316 µM, first compound 0.01 µM) 101% | viability, T/C [7] 90.9% | viability, T/C [8] 84.5% | viability, T/C (second compound 1 µM, first compound 0.000316 µM) 101% | viability, T/C (second compound 1 µM, first compound 0.001 µM) 94.2% | viability, T/C (second compound 1 µM, first compound 0.00316 µM) 80.2% | viability, T/C (second compound 1 µM, first compound 0.01 µM) 88.8% | viability, T/C [13] 84.9% | viability, T/C [14] 59.6% | viability, T/C (second compound 3.16 µM, first compound 0.000316 µM) 75.6% | viability, T/C (second compound 3.16 µM, first compound 0.001 µM) 72.5% | viability, T/C (second compound 3.16 µM, first compound 0.00316 µM) 83.7% | viability, T/C (second compound 3.16 µM, first compound 0.01 µM) 79% | viability, T/C [19] 70.5% | viability, T/C [20] 54.6% | viability, T/C (second compound 10 µM, first compound 0.000316 µM) 56.3% | viability, T/C (second compound 10 µM, first compound 0.001 µM) 56.5% | viability, T/C (second compound 10 µM, first compound 0.00316 µM) 47.7% | viability, T/C (second compound 10 µM, first compound 0.01 µM) 59.9% | viability, T/C [25] 58.2% | viability, T/C [26] 41.7%

NS(=O)(=O)OCC1CC(n2ccc3c(NC4CCc5ccccc54)ncnc32)CC1O (stereo not given) + Cc1ccccc1N=Nc1ccc(NC(=O)c2ccnn2C)c(C)c1
inactive: viability, T/C [1] 51.6% | viability, T/C [2] 56.5% | viability, T/C [3] 16.4% | viability, T/C [7] 59% | viability, T/C [8] 44.2% | viability, T/C [9] 16.8% | viability, T/C [13] 61.5% | viability, T/C [14] 53.1% | viability, T/C [15] 22.4% | viability, T/C [19] 51.5% | viability, T/C [20] 53.4% | viability, T/C [21] 23.6% | viability, T/C [25] 40.4% | viability, T/C [26] 35.7% | viability, T/C [27] 20.2% | viability, T/C [28] 10.3%
active: viability, T/C [4] 7.98% | viability, T/C [5] 7.35% | viability, T/C [6] 6.54% | viability, T/C [10] 9.99% | viability, T/C [11] 7.77% | viability, T/C [12] 6.89% | viability, T/C [16] 11.4% | viability, T/C [17] 8.79% | viability, T/C [18] 6.95% | viability, T/C [22] 11% | viability, T/C [23] 7.99% | viability, T/C [24] 6.85% | viability, T/C [29] 8.16% | viability, T/C [30] 5.99%
113 nM: IC50 (second compound 0.1 µM)
< 31.6 nM: IC50 (second compound 10 µM)
111 nM: IC50 (second compound 1 µM)
110 nM: IC50 (second compound 3.16 µM)
63.3 nM: IC50 (second compound 0.316 µM)
